The results in this text go back to PMC9721424, “Novel N-methylsulfonyl-indole derivatives: biological activity and COX-2/5-LOX inhibitory effect with improved gastro protective profile and reduced cardio vascular risks” (Journal of Enzyme Inhibition and Medicinal Chemistry, 2022).

Read-outs that look alike come from different tables or passages of the source.

For experiment [1], the system named is TNF-α in RAW264.7 macrophage cells. Description: In vitro measurement of TNF-α in RAW264.7 macrophage cells (RT-qPCR). In kind it is cell-based. The text has this: Both Lipopolysaccharides (LPS) and hispidin were purchased from Sigma (Sigma-Aldrich, St. Louis, MO, USA)[40]. The foetal bovine serum (FBS) and Dulbecco’s modified Eagle’s medium (DMEM) were purchased from Hyclone (General Electric Healthcare Life Sciences, Mississauga, Canada), penicillin streptomycin (P/S) was purchased from Solarbio (Solarbio life sciences, Beijing, P. R. China). Results of all in vitro anti-inflammatory screening were obtained from the confirmatory diagnostic unit, VACSERA, Egypt.
DMEM was used to cultivate the macrophage cells RAW264.7 (Shanghai BOGO Industrial Co., Ltd., Shanghai, China), and supplemented with 10% FBS and 1% P/S (100 U/ml and […], respectively). […] They were treated with various concentrations of hispidin, then with 1 μg/ml LPS for the indicated time.
PBS (1 ml/well) was used to wash the cells in 24-well plates. […] For the experiments, CL Buffer included MgCl2 (M1028; Sigma) or RNasin Plus RNase Inhibitor (N2615; Promega). Before use, both Bio-Rad SPR and CL buffer were equilibrated to room temperature. […] Carefully, the resulting lysates were collected and either analysed immediately or stored frozen ([…]).
RT-qPCR analysis was performed in one-step SYBR Green RT-qPCR. […] A CFX96 real-time PCR instrument (Bio-Rad) was used under the following protocol: 50uC for 10 min, 95uC for 5 min, 95uC for 10 s/61uC for 15 s/72uC for 30 s.
Total RNA purified from cells was used as an RT-qPCR quantification standard.
For orientation: Quantitative PCR measures a nucleic acid by following its amplification.

The next experiment has as its target T1, 5-LOX enzyme (Homo sapiens, UniProt P09917).
T1 construct: purchased Cayman Chemical K980-100
T1 sequence (P09917 1-674): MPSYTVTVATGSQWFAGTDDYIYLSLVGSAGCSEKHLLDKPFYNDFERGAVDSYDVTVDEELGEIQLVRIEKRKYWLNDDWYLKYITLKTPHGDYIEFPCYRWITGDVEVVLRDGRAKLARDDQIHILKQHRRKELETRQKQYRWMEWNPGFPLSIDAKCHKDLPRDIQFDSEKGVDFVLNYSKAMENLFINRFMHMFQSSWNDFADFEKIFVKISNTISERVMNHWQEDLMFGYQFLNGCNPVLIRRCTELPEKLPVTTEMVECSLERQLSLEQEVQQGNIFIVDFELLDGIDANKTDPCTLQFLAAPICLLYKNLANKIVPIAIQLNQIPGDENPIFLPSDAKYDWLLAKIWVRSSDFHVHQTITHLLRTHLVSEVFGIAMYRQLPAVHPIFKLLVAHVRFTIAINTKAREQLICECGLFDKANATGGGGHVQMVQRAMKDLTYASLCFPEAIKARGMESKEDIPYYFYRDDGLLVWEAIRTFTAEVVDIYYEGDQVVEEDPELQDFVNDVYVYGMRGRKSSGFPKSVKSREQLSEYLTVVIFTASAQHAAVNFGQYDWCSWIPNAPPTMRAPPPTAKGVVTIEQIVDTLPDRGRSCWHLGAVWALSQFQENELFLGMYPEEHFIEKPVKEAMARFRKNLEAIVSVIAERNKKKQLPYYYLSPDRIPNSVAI
The experiment can be described thus: 5-LOX inhibition, Human Lipoxygenase Inhibitor Screening Assay (EIA) kit. It is filed as biochemical. On the procedure:
The ability of the test compounds to inhibit the 5-LOX enzyme (IC50 value, μM) was detected using the Cayman Human Lipoxygenase Inhibitor Screening Assay (EIA) kit (catalog no. K980-100, Cayman Chemical). The IC50 values of test compounds were measured in µM according to the manufacturer’s instructions and reported method.

Experiment [2] deals with Escherichia coli (E. coli) (ATCC 25922). The experiment can be described thus: Disc diffusion antimicrobial screening, E. coli. The note with it: for antibacterial activity against E. coli: 100 µg/disc. In kind it is cell-based. On the procedure:
All compounds were screened for their antimicrobial activity at the Microbiology and Immunology Department, Faculty of Pharmacy, Beni-Suef University. The antimicrobial activity screening was carried out using the disc diffusion method, as described earlier, with some adjustments.
For each indicator microbe, a solution of half McFarland turbidity was prepared in sterile saline, followed by surface streaking of the strains on Mueller-Hinton agar with a sterile cotton swab. Then, sterile filter paper discs (5 mm diameter) preloaded with 100 µg of each compound were applied to the surface of the pre-inoculated plates. Then, the plates were chilled at 4 °C for 100 min before being incubated overnight at the proper temperature for microbial growth. Finally, the diameter of the inhibition zones around each disc was measured to evaluate the antimicrobial activity of the compounds. Ciprofloxacin was used as a standard antibacterial agent at a concentration of 20 µg/disc. Furthermore, DMSO-loaded discs were used as a negative control.

For a further experiment, the target named is T2, ovine COX-1 (Ovis aries, UniProt P05979).
T2 sequence (P05979 25-600): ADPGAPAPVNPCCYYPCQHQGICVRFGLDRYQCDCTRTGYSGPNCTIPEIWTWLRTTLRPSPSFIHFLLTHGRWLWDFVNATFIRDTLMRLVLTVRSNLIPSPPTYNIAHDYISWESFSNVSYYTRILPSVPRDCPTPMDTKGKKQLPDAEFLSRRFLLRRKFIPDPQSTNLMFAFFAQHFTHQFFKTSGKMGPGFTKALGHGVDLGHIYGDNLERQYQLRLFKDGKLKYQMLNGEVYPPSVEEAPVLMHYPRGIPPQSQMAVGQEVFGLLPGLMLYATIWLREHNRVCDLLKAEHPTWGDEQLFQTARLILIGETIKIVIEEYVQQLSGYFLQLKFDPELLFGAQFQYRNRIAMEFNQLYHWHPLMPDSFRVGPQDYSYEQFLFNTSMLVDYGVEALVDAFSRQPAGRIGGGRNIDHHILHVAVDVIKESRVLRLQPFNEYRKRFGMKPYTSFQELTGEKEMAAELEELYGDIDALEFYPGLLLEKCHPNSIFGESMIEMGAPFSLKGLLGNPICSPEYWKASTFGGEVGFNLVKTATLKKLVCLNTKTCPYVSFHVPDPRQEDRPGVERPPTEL
The experiment can be described thus: COX-1 inhibition, enzyme immune assay (EIA) kit.

From the text for ovine COX-1: Colorimetric enzyme immunoassay (EIA) kits were done to screen for the isozyme-specific inhibition.

Broadly, the IC50 is the concentration that inhibits the measured activity by half. A high value points to weaker potency. Turning to `Cc1ccc(N2C(=O)CSC2=NN=Cc2cn(S(C)(=O)=O)c3ccccc23)cc1` [Compound 5d], the TNF-α fold change in experiment [1] is 0.21. Further, the IC50 at 5-LOX enzyme turned out to be 1100 ± 60 nM; against 5-LOX enzyme (lab report), 1100 ± 60 nM; against ovine COX-1 (IC50 COX1, lab report / text printing uM), 5.79 ± 0.16 µM; on ovine COX-1 (IC50 COX-1), 5.79 ± 0.16 µM. Besides, the 5-LOX %inh on 5-LOX enzyme (conc 0.1 (μM)) is listed as 30.3%; on 5-LOX enzyme (conc 1 (μM)) it was 47.6%; at 5-LOX enzyme (conc 10 (μM)), 70.6%; on 5-LOX enzyme (conc 100 (μM)), 86.9%. The “antibacterial activity against E. coli” value in experiment [2] is recorded as “exclusively exhibited bioactivity against E. coli”. Also, in experiment [2] (Escherichia coli, ATCC25922, read-out: diameters of inhibition zones), the zone of inhibition at 100 µg/disc was in the range of 8 to 15 mm. Also, the COX1 %inh at ovine COX-1 (conc 0.1 (μM)) is on record as 8.83%; at ovine COX-1 (conc 1 (μM)) it was 27.6%; on ovine COX-1 (conc 10 (μM)) it was 53.7%; on ovine COX-1 (conc 100 (μM)), 83.6%.

`COc1ccc(NC(=S)N/N=C/c2cn(S(C)(=O)=O)c3ccccc23)cc1` [Compound 4e, (E)-N-(4-Methoxyphenyl)-2{[1-(methylsulfonyl)-1H-indol 3yl]methylene}hydrazinecarbothioamide]: in experiment [1], the TNF-α fold change came out at 0.26. Further, the IC50 against 5-LOX enzyme was 4080 ± 220 nM; at 5-LOX enzyme (lab report) it was 4080 ± 220 nM; on ovine COX-1 (IC50 COX-1), 24.7 ± 0.7 µM. The 5-LOX %inh amounted to 17.9% at 5-LOX enzyme (conc 0.1 (μM)), 30.9% at 5-LOX enzyme (conc 1 (μM)), 55.7% at 5-LOX enzyme (conc 10 (μM)) and 85% at 5-LOX enzyme (conc 100 (μM)). Further, the “antibacterial activity against E. coli” value in experiment [2] is “selective antibacterial activity”. For the same molecule, the COX1 %inh at ovine COX-1 (conc 0.1 (μM)) is listed as 5.87%; on ovine COX-1 (conc 1 (μM)), 14.4%; on ovine COX-1 (conc 10 (μM)), 28.6%; at ovine COX-1 (conc 100 (μM)), 73.5%.
